Assay results as given in patent US5434171A, “Preparation of 3,4,4-trisubstituted-piperidinyl-N-alkylcarboxylates and intermediates” (priority 1993, dated 1995).
Structures can show the parent of a compound that is named as a salt.

Columns and labels:
pKa determination = assay type: physicochemical; settings: 67% aq. dmf
[1] = Description: Alternatively, a crystalline salt of compound 19F.B. (free base) can be prepared as illustrated in Scheme 2 supra. Crystallization studies were conducted using 17 different acids with three solvents; ethyl acetate, acetone, and ethanol.

| pKa (pKa determination) | stability of crystalline salt of 19F.B. [1] | Structure (SMILES) |
| --- | --- | --- |
| 7.68 | – | CC(C)COC(=O)CN [Isobutyl glycine, p-toluenesulfonic acid salt] |
| – | crystalline salts stable at 25 °C | O=C(O)C[C@H](O)C(=O)O [L-malic] |
| – | crystalline salts stable at 25 °C | Cl [hydrochloric] |
